# Source: US7973162B2, “Modulators of muscarinic receptors” (Vertex Pharmaceuticals Incorporated, priority 2007, dated 2011)
# Key:
# Type in all cases: cell-based
# M3 muscarinic receptor = molecular target: T1, M3 muscarinic receptor (Homo sapiens, UniProt P20309); assay: Functional mobilization of intracellular calcium (FLIPR), M3-CHO cells; details: for Emax / M3 Efficacy: 100% efficacy = maximum response obtained with the Carbachol control; for EC50: CHO cells expressing M3, calcium mobilization
# T1 construct: expressed in transfected cells; host or cells: CHO (M3-CHO)
# T1 sequence (P20309 whole entry): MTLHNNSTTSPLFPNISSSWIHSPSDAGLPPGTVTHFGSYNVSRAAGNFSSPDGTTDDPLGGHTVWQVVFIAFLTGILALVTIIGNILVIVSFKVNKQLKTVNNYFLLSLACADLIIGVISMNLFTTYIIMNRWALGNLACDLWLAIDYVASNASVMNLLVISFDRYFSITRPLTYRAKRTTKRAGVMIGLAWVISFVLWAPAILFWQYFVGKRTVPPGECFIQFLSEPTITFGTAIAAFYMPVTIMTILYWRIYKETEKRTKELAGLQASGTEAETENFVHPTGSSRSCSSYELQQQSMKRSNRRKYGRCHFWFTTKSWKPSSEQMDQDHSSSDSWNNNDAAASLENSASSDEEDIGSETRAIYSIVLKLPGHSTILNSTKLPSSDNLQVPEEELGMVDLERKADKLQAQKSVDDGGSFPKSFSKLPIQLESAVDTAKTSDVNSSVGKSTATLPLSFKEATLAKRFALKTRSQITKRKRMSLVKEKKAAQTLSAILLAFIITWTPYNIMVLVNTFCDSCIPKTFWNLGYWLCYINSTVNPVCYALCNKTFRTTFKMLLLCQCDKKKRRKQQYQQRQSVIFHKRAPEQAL
# Description: (§1) Functional Mobilization of Intracellular Calcium to Determine Muscarinic Receptor Activity:
# (§2) CHO cells expressing muscarinic receptors (M1 to M5) are grown as monolayers in tissue culture flasks at 37° C. in a humidified atmosphere containing 5% CO2 and passaged every 3-5 days. The growth media is Dulbecco's modified eagles medium (DMEM, Gibco Cat# 12430-054), containing 25 mM Hepes and supplemented with Fetal Bovine Serum (Hyclone, cat #SH30071.03), 0.1 mM of MEM non-essential amino acids (GIBCO, Cat #11140-050), 1 mM MEM Sodium Pyruvate (GIBCO Cat #11360-070) and 100 units/ml of Penicillin G and 100 μg/ml of Streptomycin (GIBCO Cat #15140-122). The recombinant muscarinic receptor cell lines are grown under antibiotic pressure with media containing 25 μg/ml zeocin and 500 μg/ml G418 (M1-CHO), 4 μg/ml puromycin, 50 μg/ml zeocin and 2.5 μg/ml blasticidin (M2 and M4-CHO) or 50 μg/ml zeocin and 4 μg/ml puromycin (M3 and M5-CHO).
# (§3) Cells are harvested at 80-90% confluence using Versene (GIBCO Cat #15040-066), collected by centrifugation and seeded 18-24 hrs prior to running the calcium assay at a density of 5,000-10,000 cells/well in […], clear-bottomed 384-well plates (BD Biocoat, poly-D-lysine, Cat#356663). The day of the experiment, the cells are washed with a plate washer (Bioteck Instruments, ELX 405) using bath1 buffer (140-mM NaCl, 4.5-mM KCl, 2-mM CaCl2, 1-mM MgCl2, 10-mM Hepes-Na, 10-mM Glucose, pH 7.4, with NaOH) containing 1 mM Probenecid. Next, the calcium dye Fluo-3 (25 μl/well of Fluo-3 AM at 4 μM, Molecular Probes F-1241, in Bath 1 buffer containing 1 mM Probenecid) is added to the 25 μl of Bath 1 remaining in each well after the plate wash and the dye is loaded at 37° C. in the tissue culture incubator for 60-90 min. The fluorescent dye is removed using the plate washer with Bath 1 containing 1 mM Probenecid, leaving 25 μl/well of this solution after the wash. Alternatively, cells can be loaded with the calcium indicator from Molecular Devices (Calcium 3 Assay Reagents, Cat #R7181) adding 5 μl of a 5× solution dye in Bath 1 containing 1 mM Probenecid (10 ml per dye flask cat #R7182 to generate a solution 20×) to 20 μl of the same buffer. After loading for 60 min, the experiment can be run without having to remove the dye.
# (§4) Compounds are prepared at a 2× fold concentration in a 96-well plate (round bottom, Costar Corning cat #3656), by reconstituting the pre-spotted compounds in bath 1 containing 1 mM probenecid. The final concentration DMSO is 0.5%, and the amount of DMSO is normalized across the assay plate. To determine an agonist action of the compounds on muscarinic receptors, the reconstituted compounds are added (25 μl compound/well) to the cell assay plate (containing 25 μl/well) using the multi-channel robotic system of the FLIPR 3 Instrument (Molecular Devices, Sunnyvale, Calif.). To determine a functional inhibitory action of the compounds on muscarinic receptors, the reconstituted compounds are added (25 μl compound/well) to the assay plate and pre-incubated for 15 min prior to adding 25 μl of Carbachol at 3× the EC80 for each muscarinic subtype. Alternatively, the compounds can be co-applied simultaneously with the agonist. In both assay modes, the fluorescence is recorded for 60 sec (excitation wavelength is […] and emission wavelength 540 nm) using the FLIPR 3 instrument.
# (§5) The potency, efficacy and selectivity of the muscarinic compounds were evaluated by screening the compound activity across the whole family (M1 to M5 cells). Compounds were also screened for activity on other proteins such as other GPCRs and ion channels to determine selectivity on M4 receptors.
# (§6) Examples of activities and efficacies of the muscarinic compounds of formulae (I, Ia, and Ib) on modulating M1 and M4 receptors are shown below in Table 3. […]
# M2 muscarinic receptor = molecular target: T2, M2 muscarinic receptor (Homo sapiens, UniProt P08172); assay: Functional mobilization of intracellular calcium (FLIPR), M2-CHO cells; details: for Emax / M2 Efficacy: 100% efficacy = maximum response obtained with the Carbachol control; for EC50: CHO cells expressing M2, calcium mobilization
# T2 construct: expressed in transfected cells; host or cells: CHO (M2-CHO)
# T2 sequence (P08172 1-466): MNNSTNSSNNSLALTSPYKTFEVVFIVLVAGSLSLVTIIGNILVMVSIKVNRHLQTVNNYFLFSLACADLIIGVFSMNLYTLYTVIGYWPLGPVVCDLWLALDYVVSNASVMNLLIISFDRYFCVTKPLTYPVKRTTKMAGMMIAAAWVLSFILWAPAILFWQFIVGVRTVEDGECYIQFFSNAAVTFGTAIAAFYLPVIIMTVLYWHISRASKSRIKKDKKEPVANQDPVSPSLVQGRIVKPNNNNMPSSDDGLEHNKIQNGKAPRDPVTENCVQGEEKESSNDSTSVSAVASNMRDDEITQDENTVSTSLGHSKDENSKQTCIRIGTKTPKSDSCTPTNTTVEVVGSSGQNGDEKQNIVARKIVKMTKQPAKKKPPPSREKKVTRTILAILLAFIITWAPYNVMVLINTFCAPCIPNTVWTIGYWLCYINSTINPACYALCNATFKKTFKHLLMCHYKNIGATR
# Description: as §1, §2, §3, §4, §5, §6
# M1 muscarinic receptor = molecular target: T3, M1 muscarinic receptor (Homo sapiens, UniProt P11229); assay: Functional mobilization of intracellular calcium (FLIPR), M1-CHO cells; details: for Emax / M1 Efficacy: 100% efficacy = maximum response obtained with the Carbachol control; for EC50: CHO cells expressing M1, calcium mobilization
# T3 construct: expressed in transfected cells; host or cells: CHO (M1-CHO)
# T3 sequence (P11229 1-460): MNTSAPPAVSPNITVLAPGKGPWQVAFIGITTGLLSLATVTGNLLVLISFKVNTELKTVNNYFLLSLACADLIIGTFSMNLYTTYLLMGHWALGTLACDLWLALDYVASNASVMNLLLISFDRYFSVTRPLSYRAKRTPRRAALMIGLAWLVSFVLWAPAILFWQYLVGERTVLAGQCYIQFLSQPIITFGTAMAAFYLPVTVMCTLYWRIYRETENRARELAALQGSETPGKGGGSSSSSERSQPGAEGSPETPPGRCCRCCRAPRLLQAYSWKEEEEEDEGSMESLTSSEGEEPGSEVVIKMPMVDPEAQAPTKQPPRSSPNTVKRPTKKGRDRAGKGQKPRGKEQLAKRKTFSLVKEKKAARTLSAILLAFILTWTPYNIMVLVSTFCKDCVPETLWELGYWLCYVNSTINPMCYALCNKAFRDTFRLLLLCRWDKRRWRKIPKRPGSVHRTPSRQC
# Description: as §1, §2, §3, §4, §5, §6
# M4 muscarinic receptor = molecular target: T4, M4 muscarinic receptor (Homo sapiens, UniProt P08173); assay: Functional mobilization of intracellular calcium (FLIPR), M4-CHO cells; details: for Emax / M4 Efficacy: 100% efficacy = maximum response obtained with the Carbachol control; for EC50: CHO cells expressing M4, calcium mobilization
# T4 construct: expressed in transfected cells; host or cells: CHO (M4-CHO)
# T4 sequence (P08173 1-479): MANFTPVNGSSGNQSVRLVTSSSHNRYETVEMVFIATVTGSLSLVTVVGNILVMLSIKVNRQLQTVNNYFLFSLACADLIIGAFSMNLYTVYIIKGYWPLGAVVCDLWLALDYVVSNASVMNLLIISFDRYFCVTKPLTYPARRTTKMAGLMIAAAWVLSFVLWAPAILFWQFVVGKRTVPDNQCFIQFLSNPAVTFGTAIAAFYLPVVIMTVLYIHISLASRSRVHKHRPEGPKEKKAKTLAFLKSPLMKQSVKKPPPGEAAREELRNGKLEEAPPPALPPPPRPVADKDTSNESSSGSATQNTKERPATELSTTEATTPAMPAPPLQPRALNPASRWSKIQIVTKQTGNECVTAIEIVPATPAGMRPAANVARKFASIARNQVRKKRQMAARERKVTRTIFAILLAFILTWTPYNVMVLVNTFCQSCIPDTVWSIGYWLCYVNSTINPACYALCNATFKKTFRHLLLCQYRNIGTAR
# Description: as §1, §2, §3, §4, §5, §6
SMILES,Emax (M3 muscarinic receptor) [%],EC50 (M3 muscarinic receptor) [µM],Emax (M2 muscarinic receptor) [%],EC50 (M2 muscarinic receptor) [µM],Emax (M1 muscarinic receptor) [%],EC50 (M1 muscarinic receptor) [µM],Emax (M4 muscarinic receptor) [%],EC50 (M4 muscarinic receptor) [µM],M3 Efficacy (M3 muscarinic receptor),M2 Efficacy (M2 muscarinic receptor),M1 Efficacy (M1 muscarinic receptor),M4 Efficacy (M4 muscarinic receptor)
CCOC(=O)N1CCC(N2CCC3(CC2)C[C@H]2CC(=O)N[C@H]2c2ccccc23)CC1 [Compound 9],25 to 100,< 2,25 to 100,< 2,25 to 100,< 2,25 to 100,< 2,–,–,–,–
O=C1C[C@@H]2CC3(CCN(C4CC5CCC(C5)C4)CC3)c3ccccc3[C@@H]2N1 (stereo partly shown) [Compound 5],< 25,> 5,25 to 100,< 2,25 to 100,< 2,25 to 100,< 2,–,–,–,–
CN1C(=O)C[C@@H]2CC3(CCN(C4CC5CCC(C5)C4)CC3)c3ccccc3[C@@H]21 (stereo partly shown) [Compound 15],< 25,> 5,< 25,> 5,25 to 100,2 to 5,25 to 100,< 2,–,–,–,–
c1ccc2c(c1)C1OCCC1CC21CCN(C2CC3CCC(C3)C2)CC1 (stereo not shown) [Compound 8],< 25,> 5,< 25,> 5,25 to 100,> 5,25 to 100,< 2,–,–,–,–
CCOC(=O)N1CCC(N2CCC3(CC2)C[C@H]2CC(=O)N(CCOC)[C@H]2c2ccccc23)CC1 [Compound 1],< 25,> 5,25 to 100,< 2,25 to 100,< 2,25 to 100,< 2,–,–,–,–
CCOC(=O)N1CCC(N2CCC3(CC2)C[C@H]2CC(=O)N(C)[C@H]2c2ccccc23)CC1 [Compound 12],< 25,> 5,25 to 100,< 2,25 to 100,< 2,25 to 100,< 2,–,–,–,–
CCOC(=O)N1CCC(N2CCC3(CC2)C[C@H]2CC(=O)N[C@H]2c2ccccc23)CC1 [Compound 17],–,> 5,–,< 2,–,< 2,–,< 2,+ (efficacy was calculated to be less than 25%),++ (efficacy was calculated to be from 100% to 25%),++ (efficacy was calculated to be from 100% to 25%),++ (efficacy was calculated to be from 100% to 25%)
CCOC(=O)N1CCC(N2CCC3(CC2)CC2CC(=O)OC2c2ccccc23)CC1 (stereo not shown) [Compound 4],25 to 100,> 5,25 to 100,< 2,25 to 100,< 2,25 to 100,< 2,–,–,–,–
CN1C(=O)C[C@@H]2CC3(CCN(C4CCCCC4)CC3)c3ccccc3[C@@H]21 [Compound 23],< 25,> 5,25 to 100,< 2,25 to 100,< 2,25 to 100,< 2,–,–,–,–
c1ccc2c(c1)C1OCCC1CC21CCN(C2CCCCCC2)CC1 (stereo not shown) [Compound 11],< 25,> 5,< 25,> 5,25 to 100,2 to 5,25 to 100,< 2,–,–,–,–
O=C1C[C@@H]2[C@H](N1)c1ccccc1C21CCN(C2C[C@H]3CC[C@@H]2C3)CC1 (stereo partly shown) [Compound 32],< 25,> 5,25 to 100,2 to 5,25 to 100,2 to 5,25 to 100,< 2,–,–,–,–
CN1C(=O)C[C@@H]2CC3(CCN(C4CC5CCC(C5)C4)CC3)c3ccccc3[C@@H]21 (stereo partly shown) [Compound 3],–,> 5,–,< 2,–,< 2,–,< 2,+ (efficacy was calculated to be less than 25%),+ (efficacy was calculated to be less than 25%),++ (efficacy was calculated to be from 100% to 25%),++ (efficacy was calculated to be from 100% to 25%)
CCOC(=O)N1CCC(N2CCC3(CC2)CC2CCOC2c2ccccc23)CC1 (stereo not shown) [Compound 2],< 25,> 5,25 to 100,< 2,25 to 100,< 2,25 to 100,< 2,–,–,–,–
CCOC(=O)N1CCC(N2CCC3(CC2)C[C@H]2CC(=O)N(CC(=O)O)[C@H]2c2ccccc23)CC1 [Compound 13],< 25,> 5,< 25,> 5,25 to 100,> 5,25 to 100,> 5,–,–,–,–
